# Results as given in PMC11345844, “Non-Covalent Inhibitors of SARS-CoV-2 Papain-Like Protease (PLpro): In Vitro and In Vivo Antiviral Activity” (Journal of Medicinal Chemistry, 2024).
# Entries after “also recorded” stand apart in the source; their conditions may differ. Where two headings read alike, the source gives them in different places.
# Assays:
# COVID-19 = settings: human, in vivo, po; cited from earlier work
# in vitro = settings: human
# [1] = Comparison of plasma PK of 10 and 42 (Figure S3); settings: 25 mg/kg i.p. (Figure S3)
# SARS-CoV-2 (strain WA1) [2] = assay: Antiviral plaque assay in Vero cells with P-gp inhibitor CP-100356; assay type: cell-based
# SARS-CoV-2 [3] = settings: cited from earlier work
# PLpro [4] = settings: cited from earlier work; for IC50: read-out: Reported enzyme inhibition potency IC50, see referenced publications for assay details
# [5] = i.v. hamster, 2 mg/kg
# Plasma protein binding = settings: human
# A549-hACE2 cells = settings: cited from earlier work
# in vivo [6] = settings: male, C57BL/6, mouse, plasma
# Vero E6 cells = settings: cited from earlier work
# in vivo [7] = settings: male, hamster, plasma
# in vivo [8] = settings: C57BL/6, mouse, plasma, ip, 25 mg/kg
# [9] = 64 25 mg/kg i.p., between 0.5 to 5 h after administration
# SARS-CoV-2 (strain WA1) [10] = assay type: cell-based
# [11] = Plasma PK of 32 (Figure S1)
# PLpro [12] = settings: compared with all inhibitors studied; cited from earlier work
# [13] = Plasma exposure after 50 mg/kg i.p. in male C57BL/6 mice
# SARS-CoV-2 [14] = settings: read-out: Reported cell-based antiviral potency EC50; cited from earlier work
structure (smiles),measurement,setting,value
"CC(C)C(=O)OC[C@H]1O[C@@H](n2cc/c(=N\O)[nH]c2=O)[C@H](O)[C@@H]1O [Compound 65, Molnupiravir]",efficacy against hospitalization or death,COVID-19,about 30%
"Cc1ccc(OC2CCNCC2)cc1C(=O)N[C@H](C)c1cccc(-c2ccc(CNC3CCCC3)s2)c1 [Compound 44, (R)-N-(1-(3-(5-((Cyclopentylamino)methyl)thiophen-2-yl)phenyl)ethyl)-2-methyl-5-(piperidin-4-yloxy)benzamide]",CC50,in vitro,22 ± 0.9 µM
"Cc1ccc(OC2CNC2)cc1C(=O)N[C@H](C)c1cccc(-c2ccc(CN3CCCC3)s2)c1 [Compound 42, (R)-5-(Azetidin-3-yloxy)-2-methyl-N-(1-(3-(5-(pyrrolidin-1-ylmethyl)thiophen-2-yl)phenyl)ethyl)benzamide]",in vivo exposure compared to 10,[1],significantly lower exposure
same,efficacy in inhibiting viral replication (plaque assay),SARS-CoV-2 (strain WA1) [2],relatively higher efficacy
CC(C)(C)[C@H](NC(=O)C(F)(F)F)C(=O)N1C[C@H]2[C@@H]([C@H]1C(=O)N[C@H](C#N)C[C@@H]1CCNC1=O)C2(C)C [nirmatrelvir],left-shift in the response caused by CP-100356,SARS-CoV-2 [3],ca. 100 fold
COC(=O)/C=C/CNC(=O)CNC(=O)[C@H](CN)NC(=O)[C@H](CCc1nc2ccccc2s1)NC(C)=O [Compound 8],Reported enzyme inhibition,PLpro [4]; at 100 μM,almost complete inhibition
Cc1ccc(NC2CNC2)cc1C(=O)N[C@H](C)c1cccc(-c2ccc(CNC3CCCC3)s2)c1 [Compound 10],plasma clobs,[5],75 ± 5 mL/min/kg
same,half-life,Human plasma stability,60 h
same,fraction unbound,Plasma protein binding,0.033
same,potency against viral infection,A549-hACE2 cells,low micromolar potency
same,Cmax,"in vivo [6]; iv, 2 mg/kg",734 ± 125 ng/mL
same,Cmax,"in vivo [6]; sc, 50 mg/kg",3190 ± 667 ng/mL
same,potency against viral infection,Vero E6 cells,low micromolar potency
same,plasma clobs,"i.v. mouse, 2 mg/kg",111 ± 16 mL/min/kg
same,bioavailability,"i.v./s.c., mice and hamsters, minor species differences",good
same,Cmax,"in vivo [7]; iv, 2 mg/kg",2920 ± 474 ng/mL
same,Cmax,"in vivo [7]; sc, 20 mg/kg",1220 ± 276 ng/mL
same,CC50,in vitro,43 ± 1.8 µM
"Cc1ccc(NC2CNC2)cc1C(=O)N[C@H](C)c1cccc(-c2ccc(CN[C@H]3CC[C@@H](C(=O)O)C3)s2)c1 [Compound 39, (1R,3S)-3-(((5-(3-((R)-1-(5-(Azetidin-3-ylamino)-2-methylbenzamido)ethyl)phenyl)thiophen-2-yl)methyl)amino)cyclopentane-1-carboxylic Acid]",Cmax,in vivo [8],7910 ng/mL
same,half-life,in vivo [8],2 h
"Cc1ccc(NC2CNC2)cc1C(=O)N[C@H](C)c1cccc(-c2cc(C)c(CNC3CCCC3)s2)c1 [Compound 16, (R)-5-(Azetidin-3-ylamino)-N-(1-(3-(5-((cyclopentylamino)methyl)-4-methylthiophen-2-yl)phenyl)ethyl)-2 Methylbenzamide]",CC50,in vitro,27 ± 1.4 µM
"Cc1ccc(NC2CNC2)cc1C(=O)N[C@H](C)c1cccc(-c2ccc(CN[C@H]3CC[C@@H](C(=O)OC[C@H]4O[C@@H](n5ccc(NO)nc5=O)[C@H](O)[C@@H]4O)C3)s2)c1 [Compound 64, ((3S,4R,5R)-3,4-Dihydroxy-5-(4-(hydroxyamino)-2-oxopyrimidin-1(2H)-yl)tetrahydrofuran-2-yl)methyl (1R,3S)-3-(((5-(3-((R)-1-(5-(azetidin-3-ylamino)-2-methylbenzamido)ethyl)phenyl)thiophen-2-yl)methyl)amino)cyclopentane-1-carboxylate]",detection of mutual prodrug in plasma,[9],not detectable; also recorded: undetectable
"Nc1ccc2cc3ccc(N)cc3nc2c1 [Compound 6, proflavine]",IC50,PLpro [4],1.46 µM
CC(=O)Nc1cccc(CNC(=O)C2CCN([C@H](C)c3cccc4ccccc34)CC2)c1 [Compound 3],IC50,PLpro [4],2.69 ± 0.34 µM
"Cc1ccc(OCCN)cc1C(=O)N[C@H](C)c1cccc(-c2ccc(CN3CCCC3)s2)c1 [Compound 48, (R)-5-(2-Aminoethoxy)-2-methyl-N-(1-(3-(5-(pyrrolidin-1-ylmethyl)thiophen-2-yl)phenyl)ethyl)benzamide]",efficacy in inhibiting viral replication (plaque assay),SARS-CoV-2 (strain WA1) [2],low efficacy
"Cc1ccc(NC2CNC2)cc1C(=O)N[C@H](C)c1cccc(-c2ccc(CNC(=O)C3CCCC3)s2)c1 [Compound 32, (R)-5-(Azetidin-3-ylamino)-N-(1-(3-(5-(cyclopentanecarboxamidomethyl)thiophen-2-yl)phenyl)ethyl)-2-methylbenzamide]",efficacy in inhibiting viral replication (plaque assay),SARS-CoV-2 (strain WA1) [2],almost complete loss of antiviral activity
same,antiviral activity by RT-PCR of viral RNA,SARS-CoV-2 (strain WA1) [10],lack of activity
same,bioavailability administered i.p.,[11]; 25 mg/kg i.p. (Figure S1),good bioavailability
same,oral bioavailability,"[11]; p.o. 100 mg/kg in corn oil, gavage (Figure S1)",without oral bioavailability
Cc1ccc(NC2CNC2)cc1C(=O)N[C@H](C)c1cccc(-c2ccc(CN[C@H]3CC[C@@H](O)C3)s2)c1 [Compound 11],efficacy in inhibiting viral replication (plaque assay),SARS-CoV-2 (strain WA1) [2],least efficacious compound
same,off-rate,PLpro [12],lowest off-rate
"CC(=O)OC(C)OC(=O)N1CC(Nc2ccc(C)c(C(=O)N[C@H](C)c3cccc(-c4ccc(CNC(=O)C5CCCC5)s4)c3)c2)C1 (stereo partly drawn) [Compound 62, 1-Acetoxyethyl 3-((3-(((R)-1-(3-(5-(cyclopentanecarboxamidomethyl)thiophen-2-yl)phenyl)ethyl)carbamoyl)-4-methylphenyl)amino)azetidine-1-carboxylate]",antiviral activity by RT-PCR of viral RNA,SARS-CoV-2 (strain WA1) [10],not greatly improved
Cc1ccc(NC2CNC2)cc1C(=O)N[C@H](C)c1cccc(-c2ccc(CN3CCCC3)s2)c1 [Compound 2],toxicity observation,[13],overt toxicity
same,potency against viral infection,A549-hACE2 cells,low micromolar potency
same,EC50,SARS-CoV-2 [14],1.2 ± 0.2 µM
same,potency against viral infection,Vero E6 cells,low micromolar potency
